Measured values taken from US11185532B2, “Methods of treating pruritus” (Clexio Biosciences Ltd., priority 2019, dated 2021).
Where two headings read alike, the source gives them in different places.

Assays:
Adrenergic α2C = Adrenergic α2C (Homo sapiens, UniProt P18825); test: biochemical
Adrenergic α2A = Adrenergic α2A (Homo sapiens, UniProt P08913); test: biochemical
SST4 [1] = biological target: T1, SST4 (Homo sapiens, UniProt P31391); test: biochemical
[2] = system: PNT-induced neuropathic pain in pigs; test: Peripheral neuritis trauma (PNT)-induced neuropathic pain in pigs; format: in vivo; details: topical twice daily 0.1%, 0.33%, 1%
Excerpt: 30 pigs were anaesthetized and an incision of 8-10 cm made through the skin and fascia on the left side of their lower backs, approximately 1 cm lateral and parallel to the spine line. The muscles were retracted and the sciatic nerve exposed. Following exposure, PNT was induced by loosely tying (1-2 mm apart) around the lateral half of the sciatic nerve bundle, three 3-0 silk threads, each previously immersed in complete Freund's adjuvant. 14 days after surgery and once chronic neuropathic pain had been established, treatment was initiated according to the protocol shown in Table 5. [table] At time points over the following 14 days, the animals were assessed for a variety of pain and motor parameters.

SST4 [3] = biological target: T1, SST4; test: In vitro functional assay, SST4; format: cell-based; details: agonist; highest concentration tested 10 μm
HRH4 = biological target: T2, HRH4 (Homo sapiens, UniProt Q9H3N8); test: β-arrestin GPCR internalization assay; format: cell-based; details: for EC50: read-out: RC50 (EC50)
T2 construct: Eurofins Discover X, USA

T1 sequence (P31391 whole entry): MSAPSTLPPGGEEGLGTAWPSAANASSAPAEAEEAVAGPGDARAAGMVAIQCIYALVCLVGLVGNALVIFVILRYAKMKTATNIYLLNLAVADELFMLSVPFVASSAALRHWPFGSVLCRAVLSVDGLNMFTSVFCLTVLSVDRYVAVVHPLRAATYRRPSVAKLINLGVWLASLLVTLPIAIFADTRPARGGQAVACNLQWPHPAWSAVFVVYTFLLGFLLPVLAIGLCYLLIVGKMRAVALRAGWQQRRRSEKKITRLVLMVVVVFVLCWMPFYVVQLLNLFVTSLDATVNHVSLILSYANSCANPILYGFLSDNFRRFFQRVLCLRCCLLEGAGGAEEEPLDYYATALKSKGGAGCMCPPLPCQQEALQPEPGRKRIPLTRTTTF
Sequence of Adrenergic α2C (P18825 whole entry): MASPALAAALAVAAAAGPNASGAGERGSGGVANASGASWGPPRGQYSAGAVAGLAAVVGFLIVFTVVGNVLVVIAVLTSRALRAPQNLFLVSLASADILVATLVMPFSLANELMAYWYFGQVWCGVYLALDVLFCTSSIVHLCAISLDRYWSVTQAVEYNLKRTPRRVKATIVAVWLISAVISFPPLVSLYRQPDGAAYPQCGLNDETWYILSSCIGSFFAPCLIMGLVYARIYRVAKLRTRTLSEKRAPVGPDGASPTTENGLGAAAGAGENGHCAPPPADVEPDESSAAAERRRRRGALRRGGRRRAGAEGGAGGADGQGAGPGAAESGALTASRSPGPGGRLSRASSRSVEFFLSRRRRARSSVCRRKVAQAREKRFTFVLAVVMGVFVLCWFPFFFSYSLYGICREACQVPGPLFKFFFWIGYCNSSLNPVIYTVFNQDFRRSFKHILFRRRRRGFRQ
Sequence of Adrenergic α2A (P08913 whole entry): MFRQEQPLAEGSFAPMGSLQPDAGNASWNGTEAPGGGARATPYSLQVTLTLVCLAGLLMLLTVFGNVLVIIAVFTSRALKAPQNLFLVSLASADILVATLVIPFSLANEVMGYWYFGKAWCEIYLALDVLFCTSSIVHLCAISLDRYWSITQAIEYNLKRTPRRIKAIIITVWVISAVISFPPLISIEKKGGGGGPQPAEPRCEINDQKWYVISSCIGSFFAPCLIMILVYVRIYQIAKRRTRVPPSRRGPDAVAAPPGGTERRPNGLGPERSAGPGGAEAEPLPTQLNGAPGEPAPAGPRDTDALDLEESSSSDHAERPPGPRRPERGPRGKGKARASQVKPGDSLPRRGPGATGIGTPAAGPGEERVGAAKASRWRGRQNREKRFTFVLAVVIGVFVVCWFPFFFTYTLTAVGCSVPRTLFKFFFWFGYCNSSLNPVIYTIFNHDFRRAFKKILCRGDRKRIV

EC50 (SST4 [3]) [µM] | EC50 (HRH4; assay format: Agonist) [µM] | IC50 (HRH4; assay format: Antagonist, read-out: RC50 (IC50)) [µM] | EC50 (HRH4; assay format: Inverse agonist) [µM] | Compound | inhibition at 10 µM (Adrenergic α2C) [%] | inhibition at 10 µM (Adrenergic α2A) [%] | inhibition at 10 µM (SST4 [1]) [%] | Stimulus-evoked pain, Von Frey (VF) withdrawal threshold ([2]; 14 days, versus placebo, from Day 0) | Tactile allodynia, feather stimulation ([2]; 12-13 cm pigeon feather, as soon as Day 0) | Spontaneous pain behavior, General Behavioral Score (GBS) ([2]; 3 h and 6 h post-dose, from Day 0) | Open field motor test, locomotor activity / sedation ([2]; throughout the study)
– | – | – | – | Clc1cccc(Cl)c1N=C1NCCN1 [clonidine] | 97 | 94 | 13 | – | – | – | –
7.3 | 9.6 | > 100 | > 100 | Cc1cccc(Cc2c[nH]cn2)c1C [detomidine] | – | – | 35 | dose-dependent analgesic effect | dose-dependent decreased tactile allodynia | dose-dependent reduction in GBS scores | did not affect locomotor activity at any dose level
